From patent US20260234107A1, “TRYPTAMINES AND METHODS OF TREATING MOOD DISORDERS” (priority 2022, published 2026)
pEC50: −log10 of the molar value. Like-named read-outs stand apart in the source and are kept apart here.

Experiments:
5-HT1A = target: T1, 5-HT1A (Homo sapiens, UniProt P08908); assay: FLIPR Ca2+ flux agonist assay at 5-HT1A; assay type: cell-based; conditions: for 5-HT1A % Act @ Max Dose: Ca2+ flux, CHO cells
T1 construct: host or cells: CHO cells
T1 sequence (P08908 1-422): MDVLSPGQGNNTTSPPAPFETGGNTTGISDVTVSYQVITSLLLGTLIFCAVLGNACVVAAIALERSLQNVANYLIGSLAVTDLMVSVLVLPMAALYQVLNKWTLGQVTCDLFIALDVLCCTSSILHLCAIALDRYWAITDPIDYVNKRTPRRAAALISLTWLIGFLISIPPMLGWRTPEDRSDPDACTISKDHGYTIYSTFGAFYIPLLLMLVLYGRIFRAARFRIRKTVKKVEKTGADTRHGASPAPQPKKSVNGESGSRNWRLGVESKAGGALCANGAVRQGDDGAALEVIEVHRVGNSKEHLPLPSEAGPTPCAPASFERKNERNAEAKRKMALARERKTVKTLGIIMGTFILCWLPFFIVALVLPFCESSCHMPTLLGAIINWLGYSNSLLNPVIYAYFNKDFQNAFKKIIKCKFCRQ
Protocol: (§1) A solution of 250 mM probenecid in 1 mL FLIPR assay buffer was prepared fresh. This was combined with a fluorescent dye (Fluo-4 Direct™) to make a final assay concentration of 2.5 mM. […] The fluorescent dye was then added to the assay plate along with assay buffer to a final volume of 40 μL. The cell plate was incubated for 50 min at 37° C. and 5% CO2 and placed into the FLIPR Tetra along with the compound plate. 10 μL of references and compounds were then transferred from the compound plate into the cell plate and the fluorescent signal was read.

[1] = Stability in mouse brain homogenate; assay type: in vitro ADME, male CD-1 mice; conditions: mouse brain homogenate, 1 μM, 37° C.; for half-life at 1 µM: male, CD-1
Protocol: Disclosed compounds were tested for stability in mouse brain homogenate (Table 7). There was widely variable stability among the test compounds under the conditions of the experiment.
(§2) Mouse Brain Homogenate Stability. Frozen mouse brain homogenate (pooled from male CD-1 mice, BioreclamationIVT, MSE00BRAINMZA) was thawed in a water bath at 37° C. immediately prior to use. Positive controls and test compounds (final concentration in incubation medium=1 μM for test compounds and 2 μM for controls, all with 2% DMSO) were incubated in duplicate for each time point (0, 10, 30, 60, and 120 min) in the mouse brain homogenate at a total reaction volume of 100 μL at 37° C. At the end of each incubation period, reactions were immediately quenched with 400 μL of acetonitrile containing internal standard (200 ng/mL tolbutamine and 200 ng/mL labetalol) and mixed thoroughly. Plates were then sealed, shaken for 20 min, and centrifuged at 4,000 rpm and 4° C. for 20 min. Aliquots of 50 μL of each supernatant were diluted into 100 μL of water and the mixtures were then shaken again for 10 min.

rat synaptosomes = assay: Serotonin (5-HT) release from rat synaptosomes; assay type: biochemical, Male Sprague-Dawley rats; conditions: for pEC50: rat synaptosomes preloaded with [3H]5-HT; for % Release @ Max Dose (10 μM): rat synaptosomes
Protocol: Disclosed compounds were assessed for their ability to release serotonin (5-HT) from […] (Table 9). Potency and efficacy for 5-HT release varied substantially depending on the specific compound. […] However, there was also substantial variability among 4-hydroxy compounds.
Synaptosome 5-HT Release Assay. Synaptosome release assays were conducted according to modifications of previously described procedures (Partilla et al. (2016). Interrogating the Activity of Ligands at Monoamine Transporters in Rat Brain Synaptosomes. In Neurotransmitter Transporters (pp. 41-52). Springer.). Briefly, synaptosomes were prepared from rat brains. Male Sprague-Dawley rats were rendered unconscious with CO2 and their brains were immediately removed. The cerebella were discarded and the whole brains (minus striatum) were placed in ice-cold 0.32 M sucrose (10 mL per brain) and gently homogenized by hand. The homogenate of each brain was centrifuged at 1,000×g at 4° C. for 10 mins and the resulting supernatant was diluted with ice-cold 0.32 M sucrose to a total volume of 10 mL to provide the synaptosome solution. Synaptosomes were then preloaded with 5 nM [^3H]5-HT in the presence of selective uptake inhibitors of DAT (50 nM GBR12935), NET (100 nM nomifensine), and VMAT2 (1 μM reserpine) in Krebs phosphate buffer (KPB). The incubations were allowed to reach equilibrium for 2 h at 25° C. For the release reactions, 425 μL of preloaded synaptosomes were added to test tubes containing 75 μL of test drugs diluted in KPB containing 1 mg/mL BSA. After 10 mins, the release reaction was stopped using a cell harvester by rapid vacuum filtration over GF/B filter paper presoaked in wash buffer (10 mM Tris-HCl, pH 7.4, 150 mM NaCl) and the filters were washed with additional wash buffer. Filters were dried for 1 h at 60° C. and retained radioactivity was quantified using a MicroBeta 2 liquid scintillation counter. The amount of retained radioactivity was inversely proportional to the extent of release.

[2] = test system: monoamine oxidase A and B (MAO-A and MAO-B); assay: Stability in the presence of monoamine oxidases (human liver mitochondria preparation); set-up: half-life / microsomal CLint: dose or concentration left out as unconfirmed; conditions: for stability in the presence of MAO (in words): human liver mitochondria preparation; for Remaining (t = 60 min) / half-life / microsomal CLint: human liver mitochondria; for half-life / microsomal CLint: human, pH 7.4
Protocol: Liver Mitochondria Incubations. Human liver mitochondria (Xenotech H0610.M) were used.

[3] = Stability in rat brain homogenate; assay type: in vitro ADME, male Sprague Dawley rats; conditions: rat brain homogenate, 1 μM, 37° C.; for half-life at 1 µM: male, Sprague Dawley
Protocol: Disclosed compounds were tested for stability in rat brain homogenate (Table 8). There was widely variable stability among the test compounds under the conditions of the experiment.
as §2, with “Rat” for “Mouse”, “rat” for “mouse”, “Sprague Dawley rats,” for “CD-1 mice,”, “RAT00BRAINMZA)” for “MSE00BRAINMZA)”

[4] = Metabolic stability in human liver microsomes (HLM); set-up: microsomal CLint / half-life: dose or concentration left out as unconfirmed; conditions: both, human, pooled human liver microsomes, pH 7.4
5-HT2A = 5-HT2A (Homo sapiens, UniProt P28223); assay: FLIPR Ca2+ flux agonist assay at 5-HT2A; assay type: cell-based; set-up: host or cells: HEK293; conditions: for 5-HT2A % Act @ Max Dose: HEK293, max dose
Sequence of 5-HT2A (P28223 whole entry): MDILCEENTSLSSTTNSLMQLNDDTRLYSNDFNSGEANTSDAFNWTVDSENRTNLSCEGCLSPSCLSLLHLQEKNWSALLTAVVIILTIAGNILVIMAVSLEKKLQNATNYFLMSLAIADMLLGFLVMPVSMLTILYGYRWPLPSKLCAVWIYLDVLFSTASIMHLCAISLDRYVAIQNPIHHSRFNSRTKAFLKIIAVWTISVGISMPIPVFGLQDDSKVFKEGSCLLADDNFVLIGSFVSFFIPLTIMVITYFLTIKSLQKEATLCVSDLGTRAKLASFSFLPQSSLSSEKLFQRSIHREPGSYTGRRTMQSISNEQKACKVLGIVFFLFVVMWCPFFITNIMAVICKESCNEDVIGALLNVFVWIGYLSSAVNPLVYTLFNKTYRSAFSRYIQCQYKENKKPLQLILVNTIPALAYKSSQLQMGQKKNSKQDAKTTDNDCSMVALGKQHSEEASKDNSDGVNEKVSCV
Protocol: as §1

5-HT2B = target: T2, 5-HT2B (Homo sapiens, UniProt P41595); assay: FLIPR Ca2+ flux agonist assay at 5-HT2B; assay type: cell-based; conditions: for 5-HT2B % Act @ Max Dose: Ca2+ flux, HEK293, max dose
T2 construct: host or cells: HEK293
T2 sequence (P41595 whole entry, species assumed): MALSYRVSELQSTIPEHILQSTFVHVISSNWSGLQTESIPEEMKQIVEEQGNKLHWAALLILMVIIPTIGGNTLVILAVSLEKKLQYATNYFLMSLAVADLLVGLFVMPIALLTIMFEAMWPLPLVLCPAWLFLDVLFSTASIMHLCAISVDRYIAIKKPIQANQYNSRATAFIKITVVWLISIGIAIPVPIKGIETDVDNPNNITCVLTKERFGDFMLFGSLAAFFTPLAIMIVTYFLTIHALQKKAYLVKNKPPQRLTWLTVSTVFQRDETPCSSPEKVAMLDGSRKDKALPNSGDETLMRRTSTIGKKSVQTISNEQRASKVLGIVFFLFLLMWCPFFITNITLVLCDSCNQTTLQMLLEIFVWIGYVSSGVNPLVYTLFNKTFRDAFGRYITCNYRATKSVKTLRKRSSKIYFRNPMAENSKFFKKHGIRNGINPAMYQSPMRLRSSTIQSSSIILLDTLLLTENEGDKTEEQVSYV
Protocol: as §1

[5] = human liver mitochondria 0.30 mg protein/mL, 37° C.

| SMILES | pEC50 (5-HT1A) | 5-HT1A % Act @ Max Dose (5-HT1A) | half-life at 1 µM [1] | % Compound Remaining (after 120 min) [1] | pEC50 (rat synaptosomes) | % Release @ Max Dose (10 μM) (rat synaptosomes) | stability in the presence of MAO (in words) [2] | Remaining (t = 60 min) [2] | half-life [2] | microsomal CLint [2] | half-life at 1 µM [3] | % Compound Remaining (after 120 min) [3] | half-life [4] | microsomal CLint [4] | pEC50 (5-HT2B) | 5-HT2B % Act @ Max Dose (5-HT2B) | pEC50 (5-HT2A) | 5-HT2A % Act @ Max Dose (5-HT2A; Ca2+ flux) | further results |
| --- | --- | --- | --- | --- | --- | --- | --- | --- | --- | --- | --- | --- | --- | --- | --- | --- | --- | --- | --- |
| CCCNCCc1c[nH]c2cccc(O)c12 [Compound 3, 3-(2-(propylamino)ethyl)-1H-indol-4-ol] | 4.48 | 10.7% | 72.6 min | 29.2% | < 5.00 | 36.06% | highly stable | 97.3% | > 145 min | < 15.9 µL/min/mg | 137 min | 52.5% | 120 min | 11.6 µL/min/mg |  |  |  |  |  |
| CC(C)NCCc1c[nH]c2cccc(O)c12 [Compound 6, 3-(2-(isopropylamino)ethyl)-1H-indol-4-ol] | < 4.00 | 10.15% | 163 min | 62.6% | < 5.00 | 32.8% |  | 80.5% | > 145 min | < 15.9 µL/min/mg | 136 min | 53.8% | > 145 min | < 9.6 µL/min/mg |  |  |  |  |  |
| CNCCc1c[nH]c2cc(F)cc(O)c12 [Compound 33, 6-fluoro-3-(2-(methylamino)ethyl)-1H-indol-4-ol] | < 4.00 | 3.51% | 16 min | 0.6% |  |  |  | 14.3% | 20.2 min | 114 µL/min/mg | 9.1 min | 0.4% | 10.1 min | 138 µL/min/mg | 7.55 | 31.76% |  |  | pEC50 (5-HT2A; Ca2+ flux, HEK293, read-out: 5-HT2A EC50): 8.24 |
| CNCCc1c[nH]c2c(F)ccc(O)c12 [Compound 34, 7-fluoro-3-(2-(methylamino)ethyl)-1H-indol-4-ol] | < 4.00 | 36.72% | 21.7 min | 1.6% |  |  |  | 6.4% | 15 min | 154 µL/min/mg | 3.6 min | 0% | 6.6 min | 209 µL/min/mg | < 5.00 | 8.09% | 7.79 | 77.43% |  |
| CCCNCCc1c[nH]c2ccc(F)c(O)c12 [Compound 36, 5-fluoro-3-(2-(propylamino)ethyl)-1H-indol-4-ol] | < 4.00 | 15.31% | 108 min | 46.2% |  |  |  | 0.9% | 8.5 min | 272 µL/min/mg | 31 min | 7.1% | 49.9 min | 27.8 µL/min/mg | 7.58 | 44.90% | 7.92 | 71.78% |  |
| CCNCCc1c[nH]c2ccc(C)c(O)c12 [Compound 37, 3-(2-(ethylamino)ethyl)-5-methyl-1H-indol-4-ol] | 5.16 | 64.6% | 69.9 min | 31.3% |  |  |  | 65.1% | 88.7 min | 26.1 µL/min/mg | 14.1 min | 0.2% | 86.8 min | 16 µL/min/mg | 6.56 | 16.28% | 7.25 | 91.0% |  |
| CCNCCc1c[nH]c2ccc(Cl)c(O)c12 [Compound 38, 5-chloro-3-(2-(ethylamino)ethyl)-1H-indol-4-ol] | 5.74 | 77.96% | 17.5 min | 0.9% |  |  | intermediate stability | 22.6% | 26.1 min | 88.6 µL/min/mg | 9.2 min | 0% | 13.2 min | 105 µL/min/mg | 7.37 | 43.30% | 7.98 | 103.70% |  |
| CNCCc1c[nH]c2cc(C)cc(O)c12 [Compound 39, 6-methyl-3-(2-(methylamino)ethyl)-1H-indol-4-ol] | < 4.00 | 4.4% | 15.5 min | 0.4% |  |  |  | 13.5% | 17.8 min | 130 µL/min/mg | 6.3 min | 0.1% | 9.9 min | 140 µL/min/mg | < 5.00 | 10.04% | 7.11 | 76.43% |  |
| CN(C)CCc1c[nH]c2ccccc12 [DMT, N,N-dimethyltryptamine, reference compound] |  |  |  | 0.0% | 7.09 | 80.77% | rapidly metabolized by MAO | 8.9% |  |  |  | 0.0% |  |  |  |  |  |  | t1/2 [1]: 6.4 min; CLint(MAO) [2, 5]: 134.9 µL/min/mg; t1/2 [2, 5]: 17.1 min; t1/2 [3]: 5.1 min |
